Source: PubChem BioAssay (NCI)
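Step 1: Grow cells in 96-well plates. Step 2: Expose to compound for 48 hours at 5 concentrations. Step 3: Interpolate endpoints linearly; if unreached, use highest concentration. The concentration for 50% growth inhibition is given as GI50. The concentration for full growth arrest is given as TGI.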

Tests used:
Experiment in all cases: growth of human tumour cells (NCI), 48 h
NCI/ADR-RES ovarian = system: NCI/ADR-RES ovarian
CAKI-1 renal = system: CAKI-1 renal
SW-620 colon = system: SW-620 colon
SNB-75 CNS = system: SNB-75 CNS
T-47D breast = system: T-47D breast
OVCAR-3 ovarian = system: OVCAR-3 ovarian
NCI-H522 lung = system: NCI-H522 lung
SK-MEL-2 melanoma = system: SK-MEL-2 melanoma
MDA-MB-435 = system: MDA-MB-435
KM12 colon = system: KM12 colon
LOX IMVI melanoma = system: LOX IMVI melanoma
SNB-19 CNS = system: SNB-19 CNS
HCC-2998 colon = system: HCC-2998 colon
HCT-116 colon = system: HCT-116 colon
ACHN renal = system: ACHN renal
SF-268 CNS = system: SF-268 CNS
CCRF-CEM leukemia = system: CCRF-CEM leukemia
A498 renal = system: A498 renal
HS 578T breast = system: HS 578T breast
MOLT-4 leukemia = system: MOLT-4 leukemia
RXF 393 renal = system: RXF 393 renal
SF-539 CNS = system: SF-539 CNS
EKVX NSCLC = system: EKVX NSCLC
K-562 leukemia = system: K-562 leukemia
IGROV1 ovarian = system: IGROV1 ovarian
TK-10 renal = system: TK-10 renal
SN12C renal = system: SN12C renal
UACC-257 melanoma = system: UACC-257 melanoma
SK-MEL-5 melanoma = system: SK-MEL-5 melanoma
HCT-15 colon = system: HCT-15 colon
RPMI-8226 leukemia = system: RPMI-8226 leukemia
MCF7 breast = system: MCF7 breast
SK-OV-3 ovarian = system: SK-OV-3 ovarian
HT29 colon = system: HT29 colon
786-0 renal = system: 786-0 renal
NCI-H23 lung = system: NCI-H23 lung
BT-549 breast = system: BT-549 breast
UO-31 renal = system: UO-31 renal
PC-3 prostate = system: PC-3 prostate
OVCAR-5 ovarian = system: OVCAR-5 ovarian
OVCAR-8 ovarian = system: OVCAR-8 ovarian
HOP-92 NSCLC = system: HOP-92 NSCLC
HOP-62 NSCLC = system: HOP-62 NSCLC
A549 NSCLC = system: A549 NSCLC
NCI-H226 lung = system: NCI-H226 lung
MALME-3M melanoma = system: MALME-3M melanoma
UACC-62 melanoma = system: UACC-62 melanoma
SF-295 CNS = system: SF-295 CNS
DU-145 prostate = system: DU-145 prostate
COLO 205 colon = system: COLO 205 colon
SR leukemia = system: SR leukemia
NCI-H460 lung = system: NCI-H460 lung
U251 CNS = system: U251 CNS
OVCAR-4 ovarian = system: OVCAR-4 ovarian
MDA-MB-231 breast = system: MDA-MB-231 breast
HL-60(TB) leukemia = system: HL-60(TB) leukemia
M14 melanoma = system: M14 melanoma
SK-MEL-28 melanoma = system: SK-MEL-28 melanoma

## Cc1[nH]c(C(=O)Nc2ccccc2OC2CCNCC2)c(Cl)c1Cl
NCI/ADR-RES ovarian
  GI50: 1.27 µM
  TGI: 3.57 µM
CAKI-1 renal
  GI50: 0.781 µM
  TGI: 2.11 µM
SW-620 colon
  GI50: 0.99 µM
  TGI: 2.39 µM
SNB-75 CNS
  GI50: 0.56 µM
  TGI: 1.19 µM
T-47D breast
  GI50: 0.987 µM
  TGI: 2.09 µM
OVCAR-3 ovarian
  GI50: 0.931 µM
  TGI: 1.68 µM
NCI-H522 lung
  GI50: 0.866 µM
  TGI: 1.74 µM
SK-MEL-2 melanoma
  GI50: 0.932 µM
  TGI: 1.91 µM
MDA-MB-435
  GI50: 0.883 µM
  TGI: 1.62 µM
KM12 colon
  GI50: 1.28 µM
  TGI: 3.16 µM
LOX IMVI melanoma
  GI50: 0.882 µM
  TGI: 1.61 µM
SNB-19 CNS
  GI50: 1.25 µM
  TGI: 3.44 µM
HCC-2998 colon
  GI50: 1.27 µM
  TGI: 3.48 µM
HCT-116 colon
  GI50: 0.837 µM
  TGI: 1.59 µM
ACHN renal
  GI50: 0.995 µM
  TGI: 2.05 µM
SF-268 CNS
  GI50: 0.76 µM
  TGI: 1.65 µM
CCRF-CEM leukemia
  GI50: 1.37 µM
  TGI: 3.89 µM
A498 renal
  GI50: 2.71 µM
  TGI: 9.47 µM
HS 578T breast
  GI50: 0.898 µM
  TGI: 1.9 µM
MOLT-4 leukemia
  GI50: 1.31 µM
  TGI: 3.73 µM
RXF 393 renal
  GI50: 0.816 µM
  TGI: 1.56 µM
SF-539 CNS
  GI50: 0.856 µM
  TGI: 1.56 µM
EKVX NSCLC
  GI50: 1.09 µM
  TGI: 3.86 µM
K-562 leukemia
  GI50: 1.66 µM
  TGI: 5.26 µM
IGROV1 ovarian
  GI50: 0.856 µM
  TGI: 1.73 µM
TK-10 renal
  GI50: 0.841 µM
  TGI: 1.62 µM
SN12C renal
  GI50: 0.86 µM
  TGI: 1.59 µM
UACC-257 melanoma
  GI50: 1.04 µM
  TGI: 2.12 µM
SK-MEL-5 melanoma
  GI50: 0.88 µM
  TGI: 1.59 µM
HCT-15 colon
  GI50: 0.912 µM
  TGI: 1.88 µM
RPMI-8226 leukemia
  GI50: 1.04 µM
  TGI: 2.59 µM
MCF7 breast
  GI50: 0.882 µM
  TGI: 1.68 µM
SK-OV-3 ovarian
  GI50: 8.46 µM
  TGI: 16.1 µM
HT29 colon
  GI50: 0.875 µM
  TGI: 1.71 µM
786-0 renal
  GI50: 0.817 µM
  TGI: 1.57 µM
NCI-H23 lung
  GI50: 1.52 µM
  TGI: 5.64 µM
BT-549 breast
  GI50: 0.895 µM
  TGI: 1.7 µM
UO-31 renal
  GI50: 0.656 µM
  TGI: 1.32 µM
PC-3 prostate
  GI50: 1.39 µM
  TGI: 5.23 µM
OVCAR-5 ovarian
  GI50: 1.28 µM
  TGI: 4.32 µM
OVCAR-8 ovarian
  GI50: 1.07 µM
  TGI: 2.4 µM
HOP-92 NSCLC
  GI50: 0.702 µM
  TGI: 1.79 µM
HOP-62 NSCLC
  GI50: 0.812 µM
  TGI: 1.63 µM
A549 NSCLC
  GI50: 1.22 µM
  TGI: 3.35 µM
NCI-H226 lung
  GI50: 0.966 µM
  TGI: 1.96 µM
MALME-3M melanoma
  GI50: 0.809 µM
  TGI: 1.55 µM
UACC-62 melanoma
  GI50: 0.895 µM
  TGI: 1.6 µM
SF-295 CNS
  GI50: 0.917 µM
  TGI: 1.68 µM
DU-145 prostate
  GI50: 1.05 µM
  TGI: 2.04 µM
COLO 205 colon
  GI50: 0.856 µM
  TGI: 1.63 µM
SR leukemia
  GI50: 1.46 µM
  TGI: 5.69 µM
NCI-H460 lung
  GI50: 0.984 µM
  TGI: 1.93 µM
U251 CNS
  GI50: 0.849 µM
  TGI: 1.61 µM
OVCAR-4 ovarian
  GI50: 0.901 µM
  TGI: 1.69 µM
MDA-MB-231 breast
  GI50: 0.895 µM
  TGI: 1.76 µM
HL-60(TB) leukemia
  GI50: 1.05 µM
  TGI: 2.26 µM
M14 melanoma
  GI50: 0.95 µM
  TGI: 1.9 µM
SK-MEL-28 melanoma
  GI50: 1.01 µM
  TGI: 1.97 µM
